Source: PubChem BioAssay (NCI)
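Cells were grown in 96-well plates and exposed to each compound for 48 hours at five concentrations; endpoints were interpolated linearly between bracketing concentrations, or set to the highest concentration if not reached. At the TGI there is no net growth.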

Experiments:
Experiment in all cases: growth of human tumour cells (NCI), 48 h
PC-3 prostate = tested on: PC-3 prostate
HCT-15 colon = tested on: HCT-15 colon
OVCAR-5 ovarian = tested on: OVCAR-5 ovarian
MDA-MB-231 breast = tested on: MDA-MB-231 breast
SF-539 CNS = tested on: SF-539 CNS
HS 578T breast = tested on: HS 578T breast
SNB-19 CNS = tested on: SNB-19 CNS
RPMI-8226 leukemia = tested on: RPMI-8226 leukemia
SNB-75 CNS = tested on: SNB-75 CNS
A549 NSCLC = tested on: A549 NSCLC
T-47D breast = tested on: T-47D breast
SF-295 CNS = tested on: SF-295 CNS
UACC-62 melanoma = tested on: UACC-62 melanoma
KM12 colon = tested on: KM12 colon
K-562 leukemia = tested on: K-562 leukemia
DU-145 prostate = tested on: DU-145 prostate
786-0 renal = tested on: 786-0 renal
LOX IMVI melanoma = tested on: LOX IMVI melanoma
A498 renal = tested on: A498 renal
M14 melanoma = tested on: M14 melanoma
CAKI-1 renal = tested on: CAKI-1 renal
ACHN renal = tested on: ACHN renal
OVCAR-4 ovarian = tested on: OVCAR-4 ovarian
IGROV1 ovarian = tested on: IGROV1 ovarian
SK-MEL-28 melanoma = tested on: SK-MEL-28 melanoma
HOP-62 NSCLC = tested on: HOP-62 NSCLC
CCRF-CEM leukemia = tested on: CCRF-CEM leukemia
HCT-116 colon = tested on: HCT-116 colon
MDA-MB-435 = tested on: MDA-MB-435
NCI/ADR-RES ovarian = tested on: NCI/ADR-RES ovarian
UO-31 renal = tested on: UO-31 renal
OVCAR-8 ovarian = tested on: OVCAR-8 ovarian
MALME-3M melanoma = tested on: MALME-3M melanoma
SW-620 colon = tested on: SW-620 colon
UACC-257 melanoma = tested on: UACC-257 melanoma
HOP-92 NSCLC = tested on: HOP-92 NSCLC
RXF 393 renal = tested on: RXF 393 renal
MDA-N = tested on: MDA-N
SR leukemia = tested on: SR leukemia
MOLT-4 leukemia = tested on: MOLT-4 leukemia
MCF7 breast = tested on: MCF7 breast
BT-549 breast = tested on: BT-549 breast
EKVX NSCLC = tested on: EKVX NSCLC
NCI-H522 lung = tested on: NCI-H522 lung
NCI-H226 lung = tested on: NCI-H226 lung
SF-268 CNS = tested on: SF-268 CNS
SN12C renal = tested on: SN12C renal
OVCAR-3 ovarian = tested on: OVCAR-3 ovarian
HT29 colon = tested on: HT29 colon
TK-10 renal = tested on: TK-10 renal
U251 CNS = tested on: U251 CNS
COLO 205 colon = tested on: COLO 205 colon
SK-MEL-2 melanoma = tested on: SK-MEL-2 melanoma
SK-OV-3 ovarian = tested on: SK-OV-3 ovarian
HCC-2998 colon = tested on: HCC-2998 colon
SK-MEL-5 melanoma = tested on: SK-MEL-5 melanoma
NCI-H23 lung = tested on: NCI-H23 lung
HL-60(TB) leukemia = tested on: HL-60(TB) leukemia
NCI-H460 lung = tested on: NCI-H460 lung

Measured: TGI

CC(C)CSCC1OC(n2cnc3c(N)nccc32)C(O)C1O (centres undefined)
> 100 µM: all assays above
